# In patent publication US6503934B2, “Substituted thiadiazolesulfonamides” (Aventis Pharma Deutschland GmbH, priority 1998, dated 2003):
# Test system: release of IL-1β
# Assay: Inhibition of LPS-induced IL-1β release from isolated human mononuclear cells (enzyme immunoassay)
# Type: cell-based
# Conditions: human mononuclear cells from citrate blood, lipopolysaccharide (Salmonella abortus equi) induced, 37° C. for 20 hours, IL-1β in supernatant; seven concentrations
# Method: The mononuclear cells were concentrated from freshly obtained human citrate blood by known standard processes. See, e.g., Tiku et al., J. Immunol. 136/10 (1986) 3677.
# 15 ml of Lymphoprep® (Molter GmbH, Heidelberg, FRG) was carefully introduced under a layer of 10 ml of freshly prepared human citrate blood and the mixture was then centrifuged at 400×g (Minifuge®, Heraeus, Hanau, FRG) at 20° C. for 40 minutes. The cell fraction, showing as a white ring in the phase boundary, was withdrawn with the aid of a syringe, diluted 1:1 (v/v) with PM-16 buffer (Serva, Heidelberg, FRG) and centrifuged again as above for 10 minutes. The […] was taken up in 10 ml of RPMI 1640 buffer (Gibco, Berlin, FRG), to which 300 mg/I of L-glutamine, 25 mmol/l of HEPES, […] of penicillin had been added beforehand. The cell suspension, comprising about 90% lymphocytes and 10% monocytes, was adjusted to about 5 million cells/ml with the aid of a cell counter (type IT, Coulter Diagnostics, Krefeld, FRG). The cell viability was checked with the aid of the known lactate dehydrogenase method before and after the inhibition experiments. No change in the viability was found here.
# The synthesis and release of cellular IL-1β was induced by adding a solution of […] of lipopolysaccharide (Salmonella abortus equi, Sigma GmbH, Deisenhofen, FRG) in 0.01 ml of dimethyl sulfoxide/water (1:10, v/v) to 0.48 ml of the cell fraction described above. At the same time, a solution of the test substance in 0.01 ml was added to the cell fraction, and the mixture was left in a commercially available incubator at 37° C. for 20 hours. After the sample had been cooled to 0° C., it was centrifuged in a bench centrifuge for 1 minute and in each case 0.025 ml aliquots of the supernatant were investigated specifically for their IL-1β content with the aid of a commercially available “sandwich” enzyme immunoassay kit (Biosource, Ratingen, FRG), in accordance with the manufacturer's instructions. The control values, without addition of the test preparation, were determined and set at 100%. In particular, any influence of dimethyl sulfoxide on the IL-1β level was excluded by corresponding comparison measurements.
# The concentration range was chosen here such that it comprised the ranges from 0% inhibition (that is to say without addition of the test substance) to at least 80% inhibition. The test substance concentration which led to 50% inhibition of the release of IL-1β was determined by extrapolation from the dose-effect relationship determined by graph or mathematically.
# IC50 value has been shown in Table 2 as micromoles/liter for the corresponding compounds of the formula (I) according to the invention.
smiles,measurement,value
CN(c1ccccc1)S(=O)(=O)c1nc(-c2ccccc2)ns1 [Example 1],IC50,11 µM
O=S(=O)(c1nc(-c2ccccc2)ns1)N1CCOCC1 [Example 2],IC50,3 µM
O=S(=O)(Nc1ccc(Cl)cc1)c1nc(-c2ccccc2)ns1 [Example 3],IC50,34 µM
O=S(=O)(NCc1ccccc1)c1nc(-c2ccccc2)ns1 [Example 4],IC50,15 µM
O=S(=O)(NC1CCCCC1)c1nc(-c2ccccc2)ns1 [Example 5],IC50,6 µM
COC(=O)[C@H](C)NS(=O)(=O)c1nc(-c2ccccc2)ns1 [Example 7],IC50,2 µM
CN1CCN(S(=O)(=O)c2nc(-c3ccccc3)ns2)CC1 [Example 8],IC50,4 µM
O=C(O)C1CCC(CNS(=O)(=O)c2nc(-c3ccccc3)ns2)CC1 (centres unmarked) [Example 9],IC50,2 µM
O=S(=O)(c1nc(-c2ccccc2)ns1)N1CCN(c2ccc(Cl)cc2)CC1 [Example 10],IC50,10 µM
CCOC(=O)C1CCN(S(=O)(=O)c2nc(-c3ccccc3)ns2)CC1 [Example 12],IC50,2 µM
O=C1CCN(S(=O)(=O)c2nc(-c3ccccc3)ns2)CC1 [Example 13],IC50,2 µM
O=C(O)C1CCN(S(=O)(=O)c2nc(-c3ccccc3)ns2)CC1 [Example 14],IC50,2 µM
CC(=O)N1CCN(S(=O)(=O)c2nc(-c3ccccc3)ns2)CC1 [Example 15],IC50,2 µM
"C[C@H](NS(=O)(=O)c1nc(-c2ccccc2)ns1)C(=O)O [Example 16, (S)-2-(3-Phenyl-(1,2,4)-thiadiazole-5-sulfonylamino)propionic acid]",IC50,10 µM
C[C@H](NS(=O)(=O)c1nc(-c2ccccc2)ns1)C(=O)OCc1ccccc1 [Example 17],IC50,10 µM
O=C(O)[C@@H]1CCCN1S(=O)(=O)c1nc(-c2ccccc2)ns1 [Example 18],IC50,8 µM
O=C(O)CNS(=O)(=O)c1nc(-c2ccccc2)ns1 [Example 19],IC50,40 µM
O=C(c1ccc(F)cc1)C1CCN(S(=O)(=O)c2nc(-c3ccccc3)ns2)CC1 [Example 20],IC50,12 µM
O=C(O)CCNS(=O)(=O)c1nc(-c2ccccc2)ns1 [Example 21],IC50,6 µM
O=C(O)[C@H](Cc1ccccc1)NS(=O)(=O)c1nc(-c2ccccc2)ns1 [Example 22],IC50,20 µM
CC(C)OC(=O)[C@H](C)NS(=O)(=O)c1nc(-c2ccccc2)ns1 [Example 23],IC50,6 µM
COc1ccc(-c2nsc(S(=O)(=O)N3CCN(C)CC3)n2)cc1Cl [Example 24],IC50,20 µM
CN1CCN(S(=O)(=O)c2nc(-c3ccc(Cl)cc3)ns2)CC1 [Example 25],IC50,2 µM
